These results are taken from US6403636B1, “Xanthone compounds, their preparation and use as medicament” (Zentaris AG, priority 1999, dated 2002).

*1 amine or outer side, *2 acyl side, *3 side chain or, on linkers, in order; H or OH if unused. Where a SMILES comes first, the peptide text is derived from it. Bridges are numbered along the chain shown (N, C = ends). Roman numbers before positions name the chains, in order. [ ]: non-standard residue; d: D form. Actinocin(9to1) = Cc1c2oc3c(C)ccc(C(=O)[*:1])c3nc-2c(C(=O)[*:2])c(N)c1=O; NMeV = CN[C@H](C(=O)O)C(C)C; Sar = CNCC(=O)O A value given as a limit tells only on which side of the number the result lay.

Data set [1] deals with mice. The data set is described as follows: Toxicity (LD50, i.p., mice).
Data set [2] concerns KB: epidermal carcinoma of the oral cavity. The data set is described as follows: In vivo antitumor activity (hollow fiber assay), KB. To be noted: for % Inhibition (cell line) KB: location s.c., i.p. doses (mg/kg): sootepenseone 4 × 10, Actinomycin D 4 × 0.1, Adriamycin 4 × 4, Bleomycin 4 × 8, Vinblastin 4 × 0.65. As to the method:
(§1) The hollow-fiber test was carried out as described by Melinda G. Hollingshead et al. in Life Sciences, Vol. 57, No. 2, pp.131-141, 1995.

Data set [3] can be described thus: in vivo. To be noted: mouse, ip.
The subject of data set [4] is MCF-7: human breast cancer. The data set is described as follows: In vivo antitumor activity (hollow fiber assay), MCF-7. The conditions noted are these: location s.c.; i.p. doses (mg/kg): sootepenseone 4 × 10, Actinomycin D 4 × 0.1, Adriamycin 4 × 4, Bleomycin 4 × 8, Vinblastin 4 × 0.65; negative values = increase in cell growth. As to the method: as §1
Data set [5] concerns KB: epidermal carcinoma of the oral cavity. The data set can be described thus: XTT proliferation/cytotoxicity test, KB. It is filed as cell-based. The conditions noted are these: all tested tumor cell lines (KB, L1210, SK-OV-3, LNCAP). As to the method: The XTT-assay was carried out as described by D. A. Scudiero et al., Cancer Res. 48 (Sep. 1, 1988), pp. 4827-4833. The results of this procedure are expressed as that dose which inhibits growth by 50% as compared to control growth after 45 hours following application of the substance. The dose value as obtained is referred to as ED 50 and activity is indicated for ED 50 levels of ≦30 μg/ml. […] The activities of sootepenseone (1) obtained in Example 1 are reported below in Table 2.

The LD50 is the dose at which mortality reaches 50%. High values mean lower toxicity, low ones greater toxicity.

`CC[C@]1(O)C[C@@H]2CN(CCc3c([nH]c4ccccc34)[C@@](C(=O)OC)(c3cc4c(cc3OC)N(C)[C@H]3[C@@](O)(C(=O)OC)[C@H](OC(C)=O)[C@]5(CC)C=CCN6CC[C@]43[C@@H]65)C2)C1` [Vinblastin]: in data set [1], the “LD50 (mg/kg i.p. mice)” value is on record as “ca. 6 mg/kg”. Further, the “% Inhibition (cell line) KB” value in data set [2] was 13%.
The corresponding values for `Cc1c2oc3c(C)ccc(C(=O)N[C@@H]4C(=O)N[C@H](C(C)C)C(=O)N5CCC[C@H]5C(=O)N(C)CC(=O)N(C)[C@@H](C(C)C)C(=O)O[C@@H]4C)c3nc-2c(C(=O)N[C@@H]2C(=O)N[C@H](C(C)C)C(=O)N3CCC[C@H]3C(=O)N(C)CC(=O)N(C)[C@@H](C(C)C)C(=O)O[C@@H]2C)c(N)c1=O` [Actinomycin D] (I: T[dV]P[Sar][NMeV] / II: T[dV]P[Sar][NMeV]; ester I:1-I:C, II:1-II:C; linker I:N-II:N via Actinocin(9to1)) are “ca. 1 mg/kg” and 40%.
In the same order, the values of Bleomycin are “ca. 80 mg/kg” and 53%.
In data set [3], `CC(C)=CC[C@]12OC(C)(C)C3CC(C=C4C(=O)c5c(O)cc6c(c5OC431)C(C)(C)C(C)O6)C2=O` (stereo partly drawn) [Sootepenseone (1; D-25637), sootepenseone] yielded an LD50 of more than 100 mg/kg. For the same molecule, in data set [1] (from LD50 i.p. mice), the “less toxic than Adriamycin” value is 60%, the “less toxic than Bleomycin” value is on record as 20%, the “times less toxic than Actinomycin D” value is recorded as “at least 100 times” and the “times less toxic than Vinblastin” value is reported as “about 16 times”. For the same molecule, the “% Inhibition (cell line) MCF-7” value in data set [4] is 41%. Besides, the “anticancer activity against all tested tumor cell lines” value in data set [5] was “significant anticancer activity”. For the same molecule, in data set [2] (in words, KB and MCF-7), the “activity in the hollow-fiber test compared with the standard compounds” value is given as “more active”. Further, the “% Inhibition (cell line) KB” value in data set [2] stood at 49%.
As for `COc1cccc2c1C(=O)c1c(O)c3c(c(O)c1C2=O)C[C@@](O)(C(=O)CO)C[C@@H]3O[C@H]1C[C@H](N)[C@H](O)[C@H](C)O1` [Adriamycin], the LD50 in data set [3] was approximately 40 mg/kg. In data set [4], the “% Inhibition (cell line) MCF-7” value came out at 41%. Further, the “% Inhibition (cell line) KB” value in data set [2] is on record as 52%.
